The assay deals with T1, DC-SIGN (Homo sapiens, UniProt Q9NNX6).
T1 construct: made in house
As to the kind of experiment: Inhibition of the binding of soluble DC-SIGN to immobilized HIV-1 Bal gp120 (plate ELISA). The settings on record: soluble DC-SIGN/mAb complex, gp120 captured on D7324 plate; preliminary assay; FIG. 3. The protocol:
Preliminary assays were conducted on the inhibition of the synthetic polyvalent compounds against the binding between HIV-1 gp120 and DC-SIGN. Specifically, plates were coated with 5 ug/mL D7324 anti-gp120 capture antibody, in 1×PBS O/N at RT. Blocking buffer was 5% BSA in 1×TBST+1 mM CaCL2, assay/dilution buffer was 2% BSA in 1×TBST+1 mM CaCL2 and wash buffer was 1×TBST+1 mM CaCL2 (4 washes, 200 uL per well). Gp120 (CHOK1, uQuant) was captured on the D7324 plate at saturation, 500 ng/mL in assay buffer for 2 hour at RT. sDC-SIGN supernatant (Nov. 6, 2004) was supplemented with 1 mM CaCL2 and pre-complexed with 3 ug/mL anti-DC-SIGN mAb (120507, Sigma) for 1 hour at RT. Mannose products were titered 1:2 in assay buffer (Starts 1:4 in column 2), sDC-SIGN/mAb complexes were added to the titered mannose at about 1:5 (155 uL mannose+45 uL sDC-SIGN/mAb) (no sDC-SIGN in column 12), sDC-SIGN/mAb complexes mixed with mannose compounds were allowed to bind to the Gp120 plate for 1 hour at RT. Any bound sDC-SIGN/mAb complexes were detected with goat anti-mouse-IgG-HRP (Axcell) 1:2000 in assay buffer, absorbed with 2% sheep serum.

Results on 1 compound are retold here after US20090117154A1, “SYNTHETIC POLYVALENT CARBOHYDRATES AS COMPONENTS OF MICROBICIDES” (priority 2005, published 2009).

T1 sequence (Q9NNX6 59-404): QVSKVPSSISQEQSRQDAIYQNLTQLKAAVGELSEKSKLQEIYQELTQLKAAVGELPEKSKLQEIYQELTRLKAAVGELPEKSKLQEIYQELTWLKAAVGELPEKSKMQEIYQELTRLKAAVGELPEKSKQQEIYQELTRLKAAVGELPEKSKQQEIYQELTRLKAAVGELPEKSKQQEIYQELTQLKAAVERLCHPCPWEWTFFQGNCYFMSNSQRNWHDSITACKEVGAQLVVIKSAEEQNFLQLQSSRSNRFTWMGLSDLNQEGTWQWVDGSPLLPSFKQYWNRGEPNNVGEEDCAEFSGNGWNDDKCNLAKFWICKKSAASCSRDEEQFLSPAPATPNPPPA

Take `CC(=O)N[C@@H]1[C@@H](O)[C@H](O[C@@H]2O[C@H](CO)[C@@H](O[C@@H]3O[C@H](CO[C@H]4O[C@H](CO[C@H]5O[C@H](CO)[C@@H](O)[C@H](O)[C@@H]5O[C@H]5O[C@H](CO)[C@@H](O)[C@H](O)[C@@H]5O)[C@@H](O)[C@H](O[C@H]5O[C@H](CO)[C@@H](O)[C@H](O)[C@@H]5O[C@H]5O[C@H](CO)[C@@H](O)[C@H](O)[C@@H]5O)[C@@H]4O)[C@@H](O)[C@H](O[C@H]4O[C@H](CO)[C@@H](O)[C@H](O)[C@@H]4O[C@H]4O[C@H](CO)[C@@H](O)[C@H](O)[C@@H]4O[C@H]4O[C@H](CO)[C@@H](O)[C@H](O)[C@@H]4O)[C@@H]3O)[C@H](O)[C@H]2NC(C)=O)[C@@H](CO)O[C@H]1NC(=O)C[C@H](N)C(=O)O` [Man9, Man9GlcNAc2Asn]: the “inhibition of the binding of soluble DC-SIGN to immobilized gp120 (in words)” value was “much better than the disaccharide and monosaccharide in inhibition”.
